According to PubChem BioAssay AID1963874 (Molecular Pharmacology Branch, DTP, NCI, 2024):

Tested on: 253994-281-T-J1-PDC KRAS-mutant spheroids with HUVEC/MSC, viability
Assay: Anticancer human tumor 253994-281-T-J1-PDC patient-derived colorectal carcinoma cell line growth inhibition [KRAS2]
Conditions: for IC50: curve of first compound; for viability, T/C: stronger effect = lower value
Procedure, shortened: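 KRAS-mutant tumor cells were grown as spheroids with HUVEC endothelial cells and human MSCs as stroma. Targeted agents were tested alone and with KRAS pathway inhibitors. Doses started at or near clinical Cmax, or 10 microM, descending half-log.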

[1] = second compound 0.1 µM, first compound 0.0316 µM
[2] = second compound 0.1 µM, first compound 0.1 µM
[3] = second compound 0.1 µM, first compound 0.316 µM
[4] = second compound 0.1 µM, first compound 1 µM
[5] = second compound 0.1 µM, first compound 3.16 µM
[6] = second compound 0.1 µM, first compound 10 µM
[7] = second compound 0.316 µM, first compound 0.0316 µM
[8] = second compound 0.316 µM, first compound 0.1 µM
[9] = second compound 0.316 µM, first compound 0.316 µM
[10] = second compound 0.316 µM, first compound 1 µM
[11] = second compound 0.316 µM, first compound 3.16 µM
[12] = second compound 0.316 µM, first compound 10 µM
[13] = second compound 1 µM, first compound 0.0316 µM
[14] = second compound 1 µM, first compound 0.1 µM
[15] = second compound 1 µM, first compound 0.316 µM
[16] = second compound 1 µM, first compound 1 µM
[17] = second compound 1 µM, first compound 3.16 µM
[18] = second compound 1 µM, first compound 10 µM
[19] = second compound 3.16 µM, first compound 0.0316 µM
[20] = second compound 3.16 µM, first compound 0.1 µM
[21] = second compound 3.16 µM, first compound 0.316 µM
[22] = second compound 3.16 µM, first compound 1 µM
[23] = second compound 3.16 µM, first compound 3.16 µM
[24] = second compound 3.16 µM, first compound 10 µM
[25] = second compound 10 µM, first compound 0.0316 µM
[26] = second compound 10 µM, first compound 0.1 µM
[27] = second compound 10 µM, first compound 0.316 µM
[28] = second compound 10 µM, first compound 1 µM
[29] = second compound 10 µM, first compound 3.16 µM
[30] = second compound 10 µM, first compound 10 µM
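Note: spheroids exposed to agents for seven days before readout.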
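Throughout, for viability, T/C: percent of DMSO vehicle control viability.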

| SMILES | IC50 (second compound 0.1 µM) [µM] | IC50 (second compound 0.316 µM) [µM] | IC50 (second compound 1 µM) [µM] | IC50 (second compound 3.16 µM) [µM] | IC50 (second compound 10 µM) [µM] | viability, T/C [1] [%] | viability, T/C [2] [%] | viability, T/C [3] [%] | viability, T/C [4] [%] | viability, T/C [5] [%] | viability, T/C [6] [%] | viability, T/C [7] [%] | viability, T/C [8] [%] | viability, T/C [9] [%] | viability, T/C [10] [%] | viability, T/C [11] [%] | viability, T/C [12] [%] | viability, T/C [13] [%] | viability, T/C [14] [%] | viability, T/C [15] [%] | also measured |
| --- | --- | --- | --- | --- | --- | --- | --- | --- | --- | --- | --- | --- | --- | --- | --- | --- | --- | --- | --- | --- | --- |
| COC(=O)c1ccc2c(C(=Nc3ccc(N(C)C(=O)CN4CCN(C)CC4)cc3)c3ccccc3)c(O)[nH]c2c1 + CC1OCC2(CCN(c3cnc(Sc4ccnc(N)c4Cl)c(N)n3)CC2)C1N | > 10 | 3.48 | 1.46 | 0.156 | < 0.0316 | 97.8 | 87.2 | 82.7 | 85.3 | 81.8 | 70.7 | 82.7 | 67 | 68.9 | 85.2 | 53.2 | 15 | 53.8 | 50.9 | 62.1 | viability, T/C [16]: 51.7%; viability, T/C [17]: 43.3%; viability, T/C [18]: 17.8%; viability, T/C [19]: 56.1%; viability, T/C [20]: 52%; viability, T/C [21]: 42.9%; viability, T/C [22]: 40.7%; viability, T/C [23]: 26.8%; viability, T/C [24]: 1.64%; viability, T/C [25]: 35%; viability, T/C [26]: 35%; viability, T/C [27]: 31.4%; viability, T/C [28]: 20%; viability, T/C [29]: 4.21%; viability, T/C [30]: 0.83% |
| O=C(c1cc(Cc2n[nH]c(=O)c3ccccc23)ccc1F)N1CCN(C(=O)C2CC2)CC1 + CC1OCC2(CCN(c3cnc(Sc4ccnc(N)c4Cl)c(N)n3)CC2)C1N | > 10 | > 10 | > 10 | < 0.0316 | 0.655 | 99 | 81.4 | 93.7 | 90.7 | 84.2 | 95.5 | 79.8 | 65.7 | 62.9 | 120 | 84.6 | 79.5 | 93.3 | 94.1 | 93.2 | viability, T/C [16]: 81%; viability, T/C [17]: 80.2%; viability, T/C [18]: 90.7%; viability, T/C [19]: 52.8%; viability, T/C [20]: 46.2%; viability, T/C [21]: 46.5%; viability, T/C [22]: 48.4%; viability, T/C [23]: 45.6%; viability, T/C [24]: 57.6%; viability, T/C [25]: 47.2%; viability, T/C [26]: 45.5%; viability, T/C [27]: 115%; viability, T/C [28]: 38.8%; viability, T/C [29]: 31.6%; viability, T/C [30]: 30.4% |
